The source of these data is patent US9211292B2, “Preventing or reducing drug abuse and overdose events” (ALITAIR PHARMACEUTICALS INC, priority 2011, dated 2015).

This data set is described as follows: Dissolution testing, simulated empty stomach (USP 31 NF26 Apparatus 2, 0.1N HCl). The format is physicochemical. As to conditions: for HCBT Released / HCBT Released, Percent of Original Dose: 80 mg dose, 0.1N HCl 250 ml 37° C. The method, then:
The resinate or pure HCBT was weighed to determine the dose to be tested. The resinate or pure HCBT powder was added directly to the vessel for dissolution testing without the use of a capsule or tablet and its associated excipients. The conditions in the first stage to simulate dissolution in an empty stomach were as follows:
The above resinate of the invention having an 11.5% HCBT loading was tested at dosages of 10 mg, 40 mg and 80 mg HCBT. The resinate of the invention having 60.7% HCBT loading was tested at dosages of 10 and 80 mg HCBT. […] A given dose was placed in the dissolution apparatus and stirred for a given length of time. At the end of that time, the quantity of HCBT released was determined by high pressure liquid chromatography.

As to `COc1ccc2c3c1O[C@H]1C(=O)CC[C@H]4[C@@H](C2)N(C)CC[C@]314` [Pure HCBT, Hydrocodone bitartrate], the “drug released (FIG. 1)” value (80 mg dosage in powder form, simulated empty stomach) was “released essentially all of the drug”. The “HCBT Released” value is 78.8 mg (15 min), 79.2 mg (30 min), 79.4 mg (45 min) and 79.6 mg (60 min). Further, the “HCBT Released, Percent of Original Dose” value reads like this: (15 min) 98.6% of Original Dose; (30 min) 99.0% of Original Dose; (45 min) 99.2% of Original Dose; (60 min) 99.5% of Original Dose.
